Reference: patent publication EP1218012B1, “USE OF ALPROSTADIL (PROSTAGLANDIN E1) FOR PRODUCING A MEDICAMENT FOR ANGIONEOGENESIS” (Mehrabi, Mohammad Reza, priority 1999, dated 2001)

What was measured:
Patienten mit CMP [1] = assay: Capillary density in transmural sections of explanted hearts (immunohistochemistry); assay type: in vivo; conditions: for Kapillardichte: explanted hearts after infusion therapy
Text: Um die Frage zu beantworten, ob nun die Alprostadil (PGE1)-Infusionstherapie […] HTX die […] von Patienten mit vorangegangener Alprostadil (PGE 1)-Infusionstherapie und von Patienten ohne alprostadil (PGE 1)-Therapie immunhistochemisch untersucht und die […]. Jedes […] Herz wurde in drei gleich große Stücke, nämlich in Spitze, mittleren und […]. Die […] transmural durch den […] immunohistochemische Analysen wurde sofort […] in Formaldehyd nach der üblichen Methode konserviert. Die […] wurde getrennt im Subepicardium, Myocardium und dem Subendocardium bestimmt. Die Bestimmung […] 1,mm^2 wurde getrennt anhand von anti-CD34, von Willebrand-Faktor (vwf), vascular-endothelial-growth-factor (VEGF) , anti-Ki 67 (MIB 1) und Sirius Rot, immunhistochemisch […]. Die […] Subepicardium, Myocardium und Subendocardium von transmuralen […] wurde quantitativ bestimmt und verglichen. Patienten, die eine Alprostadil (PGE 1)- Infusionen […]. Die […] Subepicardium, Myocardium und Subendocardium von der Kontrollgruppe betrug 608,56 ± 91,32 […]), 542,44 ± 197,20 […]^2 (sEndo), und 452,22 - 101,99 […]^2 (Myo) in den drei transmuralen-[…]. Alprostadil (PGE 1)-behandelte Patienten hatten im Vergleich dazu mit 1168,11 ± 165,04 […]), 1066,00 ± 94,63 […]^2 (SEndo), und 974,56 ± 87,12 […]^2 (Myocard), ungefähr 50% […]. Untersuchung hinsichtlich spezifischer immunohistochemischer […]: […]

CD 34 = assay: Anti-CD34 reactive endothelium in explanted hearts (immunohistochemistry); assay type: in vivo, Patienten
Text: Um die Frage zu beantworten, ob nun die Alprostadil (PGE1)-Infusionstherapie […] HTX die […] von Patienten mit vorangegangener Alprostadil (PGE 1)-Infusionstherapie und von Patienten ohne alprostadil (PGE 1)-Therapie immunhistochemisch untersucht und die […]. Jedes […] Herz wurde in drei gleich große Stücke, nämlich in Spitze, mittleren und […]. Die […] transmural durch den […] immunohistochemische Analysen wurde sofort […] in Formaldehyd nach der üblichen Methode konserviert. Die […] wurde getrennt im Subepicardium, Myocardium und dem Subendocardium bestimmt. Die Bestimmung […] 1,mm^2 wurde getrennt anhand von anti-CD34, von Willebrand-Faktor (vwf), vascular-endothelial-growth-factor (VEGF) , anti-Ki 67 (MIB 1) und Sirius Rot, immunhistochemisch […]. CD 34 wird von allen Endothelzellen im normalen Gewebe exprimiert. CD 34 wird auch zum Nachweis von Endothel bzw. -zellen benutzt. Patienten nach einer Alprostadil (PGE […] Endothel (Fig.1) auf als die Kontrollgruppe (Subepicardium: 599,22 ± 107,17 mm^2 gegenüber 322,89 ± 160,64 mm^2-Zellen, p <0,001; Myocardium: 482,11 ± 79,86 mm^2 vs. 227,22 ± 49,30 mm^2 , p<0.0001; Subendocardium: 482,11 ± 79,86 mm^2 gegenüber 227,22 ± 49,30 mm^2, p <0,0001); Subendocardium: 551,67 ± 107.74 mm^2 gegenüber 308,56 ± 193.86 mm^2, p < 0,01). Die Ergebnisse sind auch in Fig.6A, 8A und 8B dargestellt.

[2] = tested on: Von Willebrand Faktor (vWf); assay: Anti-vWf (factor VIII related antigen) reactive endothelium in explanted hearts (immunohistochemistry); assay type: in vivo, Patienten
Text: Um die Frage zu beantworten, ob nun die Alprostadil (PGE1)-Infusionstherapie […] HTX die […] von Patienten mit vorangegangener Alprostadil (PGE 1)-Infusionstherapie und von Patienten ohne alprostadil (PGE 1)-Therapie immunhistochemisch untersucht und die […]. Jedes […] Herz wurde in drei gleich große Stücke, nämlich in Spitze, mittleren und […]. Die […] transmural durch den […] immunohistochemische Analysen wurde sofort […] in Formaldehyd nach der üblichen Methode konserviert. Die […] wurde getrennt im Subepicardium, Myocardium und dem Subendocardium bestimmt. Die Bestimmung […] 1,mm^2 wurde getrennt anhand von anti-CD34, von Willebrand-Faktor (vwf), vascular-endothelial-growth-factor (VEGF) , anti-Ki 67 (MIB 1) und Sirius Rot, immunhistochemisch […] Marker wurde Faktor VIII immunhistochemisch untersucht. Die Herzen von CMP-Patienten nach Alprostadil(PGE 1)-Infusionstherapie zeigten bedeutend […] Endothelien (Abb.2) verglichen mit der Kontrollgruppe (Subepicardium: 425,56 ± 134.17 mm^2 gegenüber 192,22 ± 77,88 mm^2-Zellen, p <0,001; Myocardium: 360,00 ± 52,31 mm^2 gegenüber 159,89 ± 61.00 mm^2 p <0,0001; Subendocardium: 408,00 ± 80,00 mm^2 gegenüber 163,89 ± 47,52 mm^2, p <0,0001). Die Ergebnisse sind auch in Fig.6B, 8C und 8D dargestellt.

MIB-1 (anti-Ki67) = MIB-1 (anti-Ki67) positive cells in explanted hearts (proliferation marker); assay type: in vivo, Patienten
Text: Um die Frage zu beantworten, ob nun die Alprostadil (PGE1)-Infusionstherapie […] HTX die […] von Patienten mit vorangegangener Alprostadil (PGE 1)-Infusionstherapie und von Patienten ohne alprostadil (PGE 1)-Therapie immunhistochemisch untersucht und die […]. Jedes […] Herz wurde in drei gleich große Stücke, nämlich in Spitze, mittleren und […]. Die […] transmural durch den […] immunohistochemische Analysen wurde sofort […] in Formaldehyd nach der üblichen Methode konserviert. Die […] wurde getrennt im Subepicardium, Myocardium und dem Subendocardium bestimmt. Die Bestimmung […] 1,mm^2 wurde getrennt anhand von anti-CD34, von Willebrand-Faktor (vwf), vascular-endothelial-growth-factor (VEGF) , anti-Ki 67 (MIB 1) und Sirius Rot, immunhistochemisch […]. MIB-1 (anti-Ki67), ist ein Antikörper, der nur […], die nicht in der GO-Phase des Zellzyklus sind und wird üblicher Weise als Mitose- oder Proliferationsmarker eingesetzt. Er zeigt […] Reaktion bei mitotischen Zellen. Bei der Gruppe der Patienten mit Alprostadil(PGE 1)-Infusionstherapie war die Anzahl der MIB-1 positiven Zellen (Fig.3) in allen […] des Herzmuskels deutlich höher verglichen mit der Kontrollgruppe: (Subepicardium: 20,22 ± 4,87 pro mm^2 gegenüber 8,11 ± 2,67 pro mm^2, p <0,0001; Myocardium: 15,44 ± 4,64 pro mm^2 gegenüber 5,78 ± 2,11 pro mm^2, p <0,0001; Subendocardium: 17,84 ± 4,23 pro mm^2 gegenüber 6,89 ± 2,21 pro mm2). Die Ergebnisse sind auch in Fig.6C, 8G und 8H dargestellt.

VEGF = assay: VEGF-positive capillaries in explanted hearts (immunohistochemistry); assay type: in vivo, Patienten
Text: Um die Frage zu beantworten, ob nun die Alprostadil (PGE1)-Infusionstherapie […] HTX die […] von Patienten mit vorangegangener Alprostadil (PGE 1)-Infusionstherapie und von Patienten ohne alprostadil (PGE 1)-Therapie immunhistochemisch untersucht und die […]. Jedes […] Herz wurde in drei gleich große Stücke, nämlich in Spitze, mittleren und […]. Die […] transmural durch den […] immunohistochemische Analysen wurde sofort […] in Formaldehyd nach der üblichen Methode konserviert. Die […] wurde getrennt im Subepicardium, Myocardium und dem Subendocardium bestimmt. Die Bestimmung […] 1,mm^2 wurde getrennt anhand von anti-CD34, von Willebrand-Faktor (vwf), vascular-endothelial-growth-factor (VEGF) , anti-Ki 67 (MIB 1) und Sirius Rot, immunhistochemisch […]. VEGF ist beschrieben als spezifischer Wachstumsfaktor für Endothelzellen. Alprostadil (PGE 1)-behandelte Patienten zeigten bedeutend mehr VEGF-positive […] als die Kontrollgruppe (Fig.4) in allen drei untersuchten Abschnittsebenen (Subepicardium: 101,2 ± 5,5/mm^2 gegenüber 38.1 ± 7,2-VEGF-positive Zellen/mm^2, p <0,0001; Myocardium 76,2 ± 4,9/mm^2 gegenüber 20,6 ± 4,9/mm^2, p <0,0001; Subendocardium: 89,1 ± 5,7/mm^2 gegenüber 27,8 ± 5,1/mm^2, p <0,0001). Die Ergebnisse sind auch in Fig.6D, 8E und 8F dargestellt.

[3] = tested on: Patienten mit dilatativer CMP; assay: Fibrosis degree and heart muscle fraction (Sirius red staining) in explanted hearts; assay type: in vivo; conditions: patients with dilated CMP
Text: Die […] wurde getrennt im Subepicardium, Myocardium und dem Subendocardium bestimmt. Die Bestimmung […] 1,mm^2 wurde getrennt anhand von anti-CD34, von Willebrand-Faktor (vwf), vascular-endothelial-growth-factor (VEGF) , anti-Ki 67 (MIB 1) und Sirius Rot, immunhistochemisch […]. Die Bestimmung des Fibrosegrads und des Herzmuskelanteils bei Alprostadil (PGE 1)-behandelten Patienten (Fig.5) gegenüber der Kontrollgruppe zeigte, dass die Alprostadil (PGE1)- Infusionstherapie den Fibrosegrad bei […] CMP […] (15,35 ± 10,32% gegenüber 6,89 ± 3,59%, p <0,05, bei einem vergleichbaren Herzmuskelanteil (72,69 ± 5,25% gegenüber 68,75 ± 6,23%).

Patienten = assay: Hypertrophy: muscle count and percent muscle fraction per mm^2; assay type: in vivo; conditions: treated patients
Text: In PGE1-behandelten Patienten wurden Muskelzahl/mm^2 mit prozentuellem Muskelanteil/mm^2 bestimmt und mit unbehandelten Patienten und gesunden Kontrollen verglichen. Die Ergebnisse sind in der nachfolgenden Tabelle angegeben.

Patienten mit CMP [4] = assay: Clinical infusion therapy study in CMP patients awaiting heart transplantation (haemodynamics, clinical state, maximum tolerated dose); assay type: in vivo
Text: Patienten mit CMP wurden für eine Herztranslation (HTX) angemeldet und medikamentös mit ACE-Hemmern, β-Blocker, Diuretika und Digitalis behandelt.
In einer vorangegangenen Studie erhielten mehrere Patienten mit Kardiomyopathie, darunter 9 Patienten mit dilatativer CMP vor einer HTX zusätzlich eine Alprostadil (PGE 1)-Infusionstherapie.
Die Einschlusskriterien für die Alprostadil (PGE 1)-Studie waren: • a. Patienten waren in ihrer täglichen Aktivität schwerwiegend eingeschränkt, obwohl sie eine maximale oralmedikamentöse Therapie mit ACE-Hemmer (Angiotensin-Converting-Enzym-Antagonisten), Diuretika und Digitalis bekamen. • b. Die Hämodynamik der Patienten zeigte einen niedrigen Herz-Index (< 2,5 L/min/m2) und einen höheren PCWP (pulmonory capillary wedge pressure) > 20 mm HG). • c. CMP-Patienten, die einen erhöhten peripheren Gefäßwiderstand aufweisen.
Die Infusionstherapie erfolgte unter laufender Messung der hämodynamischen Parameter. […] In dieser klinisch-experimentellen Studie wurde die Alprostadil (PGE1)-Infusionstherapie bei Patienten im Endstadium der Herizinsuffizienz im Sinne einer adjuvanten Therapie bis zur HTX verwendet.
Die Alprostadil (PGE1)-Infusionen erfolgten über einen zentralen Rechtsherzkatheter (Hickman-Katheter) mit einer anfänglichen Dosis von 2,5 ng/kg/min, die dann bis zur maximal tolerierten Dosis (MTD) gesteigert wurde. MTD war die Dosis, bei der eine der folgenden Nebenwirkungen auftraten: Muskelschmerzen, Knochenschmerzen, Blutdruckabfall, Übelkeit, Erbrechen, Durchfall, Kopfschmerzen oder andere Nebvenwirkungen. Unter der MTD (29 ± 1 ng/kg/min) wurden die hämodynamischen Parameter dokumntiert. Die MTD wurde in den folgenden 12 Stunden halbiert und nach der Stabilisierung der Hämodynamik wurde die Therapie mit einer tragbaren Pumpe zu Hause fortgesetzt.

[5] = tested on: Patienten mit chronischer Herzinsuffizien; conditions: compared with the dobutamine-treated group; cited from earlier work
[6] = tested on: Patienten mit akutem Leberversagen; conditions: treatment begun only 10 days after onset of clinical symptoms; cited from earlier work
Tierversuche = conditions: infused directly into hepatic veins, treated group; cited from earlier work

Compound: CCCCC[C@H](O)/C=C/[C@H]1[C@H](O)CC(=O)[C@@H]1CCCCCCC(=O)O [Alprostadil, Prostaglandin E1]
- Kapillardichte (Patienten mit CMP [1]; Myocardium (Myocard)): 974,56 ± 87,12 Kapillaren/mm^2
- Kapillardichte (Patienten mit CMP [1]; Subendocardium (SEndo)): 1066,00 ± 94,63 Kapillaren/mm^2
- Kapillardichte (Patienten mit CMP [1]; Subepicardium (sEpi)): 1168,11 ± 165,04 Kapillaren/mm^2
- mehr Kapillaren als die Kontrollgruppe (Patienten mit CMP [1]; treated patients versus control group): ~50%
- anti-CD34 reaktives Endothel (CD 34; Myocardium): 482,11 ± 79,86 mm^2
- anti-CD34 reaktives Endothel (CD 34; Subendocardium): 482,11 ± 79,86 mm^2
- anti-CD34 reaktives Endothel (CD 34; Subepicardium): 599,22 ± 107,17 mm^2
- anti-vWf reaktive Endothelien ([2]; Myocardium): 360,00 ± 52,31 mm^2
- anti-vWf reaktive Endothelien ([2]; Subendocardium): 408,00 ± 80,00 mm^2
- Anzahl der MIB-1 positiven Zellen (MIB-1 (anti-Ki67); Myocardium): 15,44 ± 4,64 pro mm^2
- Anzahl der MIB-1 positiven Zellen (MIB-1 (anti-Ki67); Subendocardium): 17,84 ± 4,23 pro mm^2
- Anzahl der MIB-1 positiven Zellen (MIB-1 (anti-Ki67); Subepicardium): 20,22 ± 4,87 pro mm^2
- VEGF-positive Kapillaren/mm^2 (VEGF; Myocardium): 76,2 ± 4,9 /mm^2
- VEGF-positive Kapillaren/mm^2 (VEGF; Subendocardium): 89,1 ± 5,7 /mm^2
- VEGF-positive Kapillaren/mm^2 (VEGF; Subepicardium): 101,2 ± 5,5 /mm^2
- Fibrosegrad [3]: 6,89 ± 3,59%
- Herzmuskelanteil [3]: 72,69 ± 5,25%
- % Muskelanteil/mm^2 (Patienten): 74,9 ± 3,7%
- Muskelzahl/mm^2 (Patienten): 982,68 ± 141,43 /mm^2
- klinischer Zustand (Patienten mit CMP [4]; end-stage heart failure, with increased ejection fraction and cardiac output, reduced NYHA stage and pulmonary circulation pressures): deutliche Verbesserung
- maximal tolerierte Dosis (MTD) (Patienten mit CMP [4]; infusion via central right-heart catheter, escalated from 2,5 ng/kg/min until side effects occurred): 29 ± 1 ng/kg/min
- hämodynamische Parameter im Vergleich zu den Ausgangswerten (Patienten mit CMP [4]; under infusion therapy): deutliche Verbesserung
- Nierenfunktion (Paraaminohippurat-Clearance, Iothalamat-Clearance) [5]: bessere Nierenwerte
- hämodynamischer Effekt [5]: besseren hämodynamischen Effekt
- Wirkung bei akutem Leberversagen [6]: keine Wirkung
- Leukozyten (serologisch) (Tierversuche): mehr Leukozyten
